Columns and labels:
[1] = system: IL-17AF-induced IL-17 signaling pathway; test: Inhibition of IL-17AF-induced IL-17 signaling pathway; assay type: cell-based; details: Homo sapiens; IL-17AF used instead of IL-17AA; read-out: IC50 for Inhibiting IL-AF Signaling
How it was run: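 HEK293-derived HEK-Blue IL-17 cells (IL-17RA/RC, ACT1, NF-κB/AP-1-driven SEAP) preincubated 1 hour at 37° C with serially diluted compound from 10 μM, then stimulated with IL-17AF for 20 hours. SEAP read colorimetrically at 620 nm; IC50 from 4-parameter fit of % inhibition.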

[2] = system: IL-17AA-induced IL-17 signaling pathway; test: Inhibition of IL-17AA-induced IL-17 signaling pathway in HEK-Blue IL-17 reporter cells (SEAP); assay type: cell-based; details: Homo sapiens; HEK-Blue IL-17 cells, IL-17AA 2.5 ng/mL, 20 hours; read-out: IC50 for Inhibiting IL-AA Signaling
How it was run: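 HEK-Blue IL-17 cells (HEK293 expressing human IL-17RA/RC, ACT1 and NF-κB/AP-1-driven SEAP), 10,000/well, pre-incubated with compound (serial dilution from 10 μM) for 1 h at 37 °C, then stimulated with IL-17AA at 2.5 ng/mL final for 20 h. SEAP in supernatant read with Quanti-Blue at 620 nm; IC50 by 4-parameter fit.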

IL-17AA and IL-17RA = target: T1, IL-17AA and IL-17RA (Homo sapiens, UniProt Q16552); test: Competitive inhibition of human IL-17AA and IL-17RA binding (HTRF); details: recombinant IL-17AA (His-tag) and IL-17RA (hFc-tag); read-out: IC50 for Inhibiting IL-AA/IL-RA Binding
T1 construct: purchased Sino Biological 12047-H07B (IL-17AA); 10895-H02H (IL-17RA)
T1 sequence (Q16552 24-155): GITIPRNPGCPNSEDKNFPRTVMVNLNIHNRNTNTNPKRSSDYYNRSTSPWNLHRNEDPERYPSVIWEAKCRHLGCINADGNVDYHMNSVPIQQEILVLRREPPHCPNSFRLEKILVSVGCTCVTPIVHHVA
How it was run: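 His-IL-17AA (1 nM) premixed 1 h with anti-His-Tb (0.4 nM), and Fc-IL-17RA (1 nM) with anti-IgG-d2 (1 μg/mL); these are pre-mix levels. Compounds, diluted from 10 μM, preincubated 2 h RT with IL-17AA mix; IL-17RA mix then added, 20 min. 665/615 ratio vs no-compound and no-IL-17AA controls; IC50 by 4-parameter fit.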

| SMILES | IC50 [1] [nM] | IC50 [2] [nM] | IC50 (IL-17AA and IL-17RA) [nM] |
| --- | --- | --- | --- |
| CCCn1cnc([C@H](NC(=O)COC)[C@@H](C)c2ccc(NC(=O)[C@@H](NC(=O)c3ccnn3CC)C(C3CC3)C3CC3)c(F)c2)n1 [Compound 30, N-((S)-1,1-dicyclopropyl-3-((2-fluoro-4-((1R,2S)-1-(2-methoxyacetamido)-1-(1-propyl-1H-1,2,4-triazol-3-yl)propan-2-yl)phenyl)amino)-3-oxopropan-2-yl)-1-ethyl-1H-pyrazole-5-carboxamide] | 66 | 32 | 23 |
| CCn1nccc1C(=O)N[C@H](C(=O)Nc1ccc([C@H](C)[C@@H](NC(=O)COC)c2nncn2C2CC2)cc1F)C(C1CC1)C1CC1 [Compound 12, N-((S)-1,1-dicyclopropyl-3-((4-((1R,2S)-1-(4-cyclopropyl-4H-1,2,4-triazol-3-yl)-1-(2-methoxyacetamido)propan-2-yl)-2-fluorophenyl)amino)-3-oxopropan-2-yl)-1-ethyl-1H-pyrazole-5-carboxamide] | 320 | 91 | 49 |
| CCc1nonc1C(=O)N[C@H](C(=O)Nc1ccc([C@H](C)[C@@H](NC(=O)[C@H](C)OC)c2nncn2CC2CC2)cc1F)C(C1CC1)C1CC1 [Compound 26, N-((S)-1,1-dicyclopropyl-3-((4-((1R,2S)-1-(4-(cyclopropylmethyl)-4H-1,2,4-triazol-3-yl)-1-((S)-2-methoxypropanamido)propan-2-yl)-2-fluorophenyl)amino)-3-oxopropan-2-yl)-4-ethyl-1,2,5-oxadiazole-3-carboxamide] | 4.5 | 2 | 0.8 |
| CCn1nccc1C(=O)N[C@H](C(=O)Nc1ccc([C@H](C)[C@@H](NC(=O)COC)c2ncnn2CC2CC2)cc1F)C1CCC(C)CC1 (stereo partly drawn) [Compound 41, N-((S)-2-((4-((1R,2S)-1-(1-(cyclopropylmethyl)-1H-1,2,4-triazol-5-yl)-1-(2-methoxyacetamido)propan-2-yl)-2-fluorophenyl)amino)-1-((1R,4S)-4-methylcyclohexyl)-2-oxoethyl)-1-ethyl-1H-pyrazole-5-carboxamide] | 16 | 11 | 4.9 |
| CCn1nccc1C(=O)N[C@H](C(=O)Nc1ccc([C@H](C)[C@@H](NC(=O)COC)c2ncnn2CC2CC2)cn1)C(C1CC1)C1CC1 [Compound 48, N-((S)-1,1-dicyclopropyl-3-((5-((1R,2S)-1-(1-(cyclopropylmethyl)-1H-1,2,4-triazol-5-yl)-1-(2-methoxyacetamido)propan-2-yl)pyridin-2-yl)amino)-3-oxopropan-2-yl)-1-ethyl-1H-pyrazole-5-carboxamide] | 202 | 13 | 41 |
| CCn1nccc1C(=O)N[C@H](C(=O)Nc1ccc([C@H](C)[C@@H](NC(=O)CN2CCC2)c2ncnn2CC2CC2)cc1F)C(C1CC1)C1CC1 [Compound 51, N-((S)-1-((4-((1R,2S)-1-(2-(azetidin-1-yl)acetamido)-1-(1-(cyclopropylmethyl)-1H-1,2,4-triazol-5-yl)propan-2-yl)-2-fluorophenyl)amino)-3,3-dicyclopropyl-1-oxopropan-2-yl)-1-ethyl-1H-pyrazole-5-carboxamide] | 211 | 178 | 50 |

Further molecules by falling IC50 [1], results first:

| IC50 [1] [nM] | IC50 [2] [nM] | IC50 (IL-17AA and IL-17RA) [nM] | SMILES |
| --- | --- | --- | --- |
| 251 | 85 | 442 | CCn1nccc1C(=O)N[C@H](C(=O)Nc1ccc([C@H](C)[C@@H](NC(=O)COC)c2nnc(C)s2)cc1F)C(C1CC1)C1CC1 [Compound 17, N-((S)-1,1-dicyclopropyl-3-((2-fluoro-4-((1R,2S)-1-(2-methoxyacetamido)-1-(5-methyl-1,3,4-thiadiazol-2-yl)propan-2-yl)phenyl)amino)-3-oxopropan-2-yl)-1-ethyl-1H-pyrazole-5-carboxamide] |
| 180 | 153 | 174 | CCC(=O)N[C@@H](c1ncnn1CC1CC1)[C@@H](C)c1ccc(NC(=O)[C@@H](NC(=O)c2ccnn2C2CN(C)C2)C(C2CC2)C2CC2)c(F)c1 [Compound 73, N—((S)-1,1-dicyclopropyl-3-((4-((1R,2S)-1-(1-(cyclopropylmethyl)-1H-1,2,4-triazol-5-yl)-1-propionamidopropan-2-yl)-2-fluorophenyl)amino)-3-oxopropan-2-yl)-1-(1-methylazetidin-3-yl)-1H-pyrazole-5-carboxamide] |
| 13 | 9.6 | 5.3 | [2H]C([2H])([2H])OCC(=O)N[C@@H](c1ncnn1CC1CC1)[C@@H](C)c1ccc(NC(=O)[C@@H](NC(=O)c2ccnn2C([2H])([2H])[2H])C(C2CC2)C2CC2)c(F)c1 [Compound 71, N-((S)-1,1-dicyclopropyl-3-((4-((1R,2S)-1-(1-(cyclopropylmethyl)-1H-1,2,4-triazol-5-yl)-1-(2-(methoxy-d3)acetamido)propan-2-yl)-2-fluorophenyl)amino)-3-oxopropan-2-yl)-1-(methyl-d3)-1H-pyrazole-5-carboxamide] |
| 13 | 8 | 1.1 | CC(=O)N[C@@H](c1ncnn1CC1CC1)[C@@H](C)c1ccc(NC(=O)[C@@H](NC(=O)c2nonc2C)C(C2CC2)C2CC2)c(F)c1 [Compound 67, N-((S)-1-((4-((1R,2S)-1-acetamido-1-(1-(cyclopropylmethyl)-1H-1,2,4-triazol-5-yl)propan-2-yl)-2-fluorophenyl)amino)-3,3-dicyclopropyl-1-oxopropan-2-yl)-4-methyl-1,2,5-oxadiazole-3-carboxamide] |
| 8.6 | 5.7 | 2.8 | COCC(=O)N[C@@H](c1nncn1CC1CC1)[C@@H](C)c1ccc(NC(=O)[C@@H](NC(=O)OCc2cc(C(F)F)on2)C(C2CC2)C2CC2)c(F)c1 [Compound 32, (5-(Difluoromethyl)isoxazol-3-yl)methyl ((S)-1,1-dicyclopropyl-3-((4-((1R,2S)-1-(4-(cyclopropylmethyl)-4H-1,2,4-triazol-3-yl)-1-(2-methoxyacetamido)propan-2-yl)-2-fluorophenyl)amino)-3-oxopropan-2-yl)carbamate] |
| 3.2 | 2 | 0.9 | CCc1nonc1C(=O)N[C@H](C(=O)Nc1ccc([C@H](C)[C@@H](NC(=O)COC)c2nnnn2CC2CC2)cc1F)C(C1CC1)C1CC1 [Compound 29, N-((S)-1,1-dicyclopropyl-3-((4-((1R,2S)-1-(1-(cyclopropylmethyl)-1H-tetrazol-5-yl)-1-(2-methoxyacetamido)propan-2-yl)-2-fluorophenyl)amino)-3-oxopropan-2-yl)-4-ethyl-1,2,5-oxadiazole-3-carboxamide] |
| 3.2 | 2.2 | 2.6 | CCc1nonc1C(=O)N[C@H](C(=O)Nc1ccc([C@H](C)[C@@H](NC(=O)COC)c2ncnn2CC2CC2)cc1F)C(C1CC1)C1CC1 [Compound 34, N-((S)-1,1-dicyclopropyl-3-((4-((1R,2S)-1-(1-(cyclopropylmethyl)-1H-1,2,4-triazol-5-yl)-1-(2-methoxyacetamido)propan-2-yl)-2-fluorophenyl)amino)-3-oxopropan-2-yl)-4-ethyl-1,2,5-oxadiazole-3-carboxamide] |
